Test results as given in paper PMC6540285, “Evaluation of Protein Kinase Inhibitors with PLK4 Cross-Over Potential in a Pre-Clinical Model of Cancer” (International Journal of Molecular Sciences, 2019).

Tests used:
[1] = molecular target: MAPK9 (JNK2) (Homo sapiens, UniProt P45984); assay: SelectScreen kinase profiling, ZLYTE; type: biochemical
[2] = molecular target: ICK (Homo sapiens, UniProt Q9UPZ9); assay: SelectScreen kinase profiling, LanthaScreen binding
[3] = molecular target: PIK3C2G (PI3K-C2 gamma) (Homo sapiens, UniProt O75747); assay: SelectScreen kinase profiling, Adapta; type: biochemical
[4] = molecular target: MYLK2 (skMLCK) (Homo sapiens, UniProt Q9H1R3); assay: SelectScreen kinase profiling, ZLYTE; type: biochemical
[5] = molecular target: YES1 (Homo sapiens, UniProt P07947); assay: SelectScreen kinase profiling, ZLYTE; type: biochemical; conditions: YES1, 10 µM
[6] = molecular target: CDK4/cyclin D3 (Homo sapiens, UniProt P11802); assay: SelectScreen kinase profiling, Adapta; type: biochemical; conditions: CDK4/cyclin D3, 10 µM
[7] = molecular target: PRKCE (PKC epsilon) (Homo sapiens, UniProt Q02156); assay: SelectScreen kinase profiling, ZLYTE; type: biochemical
[8] = molecular target: PLK1 (Homo sapiens, UniProt P53350); assay: SelectScreen kinase profiling, ZLYTE; type: biochemical; conditions: PLK1, 10 µM
[9] = molecular target: ROCK2 (Homo sapiens, UniProt O75116); assay: SelectScreen kinase profiling, ZLYTE; type: biochemical; conditions: ROCK2, 10 µM
[10] = molecular target: TESK1 (Homo sapiens, UniProt Q15569); assay: SelectScreen kinase profiling, LanthaScreen binding; conditions: TESK1, 10 µM
Excerpt: Kinase Technology % Inhibition Avg Kinase Technology % Inhibition Avg […]
TESK1 LanthaScreen 37 ZAP70 ZLYTE 24
cleavage (Thermo Fisher Scientific, USA)

[11] = molecular target: SIK3 (Homo sapiens, UniProt Q9Y2K2); assay: as above; conditions: SIK3, 10 µM
[12] = molecular target: EPHA4 (Homo sapiens, UniProt P54764); assay: SelectScreen kinase profiling, ZLYTE; type: biochemical; conditions: EPHA4, 10 µM
[13] = molecular target: PDGFRB (PDGFR beta) (Homo sapiens, UniProt P09619); assay: SelectScreen kinase profiling, ZLYTE; type: biochemical
[14] = molecular target: BRAF V599E (Homo sapiens, UniProt P15056, V600E); assay: SelectScreen kinase profiling, LanthaScreen binding
[15] = molecular target: AURKA (Aurora A) (Homo sapiens, UniProt O14965); assay: SelectScreen kinase profiling, ZLYTE; type: biochemical
[16] = molecular target: ABL1 F317L (Homo sapiens, UniProt P00519, F317L); assay: SelectScreen kinase profiling, ZLYTE; type: biochemical
[17] = molecular target: RPS6KB2 (p70S6Kb) (Homo sapiens, UniProt Q9UBS0); assay: SelectScreen kinase profiling, ZLYTE; type: biochemical
[18] = molecular target: NEK9 (Homo sapiens, UniProt Q8TD19); assay: SelectScreen kinase profiling, ZLYTE; type: biochemical; conditions: NEK9, 10 µM
[19] = molecular target: NIM1K (Homo sapiens, UniProt Q8IY84); assay: SelectScreen kinase profiling, ZLYTE; type: biochemical
[20] = molecular target: KIT D820E (Homo sapiens, UniProt P10721, D820E); assay: SelectScreen kinase profiling, LanthaScreen binding
[21] = molecular target: MAP2K4 (MEK4) (Homo sapiens, UniProt P45985); assay: as above
[22] = molecular target: AXL R499C (Homo sapiens, UniProt P30530, R499C); assay: as above
[23] = molecular target: PIM3 (Homo sapiens, UniProt Q86V86); assay: SelectScreen kinase profiling, ZLYTE; type: biochemical; conditions: PIM3, 10 µM
[24] = molecular target: BRSK1 (SAD1) (Homo sapiens, UniProt Q8TDC3); assay: SelectScreen kinase profiling, ZLYTE; type: biochemical
[25] = molecular target: EPHA2 (Homo sapiens, UniProt P29317); assay: SelectScreen kinase profiling, ZLYTE; conditions: read-out: % Inhibition Avg
[26] = molecular target: RPS6KA4 (MSK2) (Homo sapiens, UniProt O75676); assay: SelectScreen kinase profiling, ZLYTE; type: biochemical
[27] = molecular target: CHUK (IKK alpha) (Homo sapiens, UniProt O15111); assay: SelectScreen kinase profiling, Adapta; type: biochemical
[28] = molecular target: PHKG2 (Homo sapiens, UniProt P15735); assay: SelectScreen kinase profiling, ZLYTE; type: biochemical; conditions: PHKG2, 10 µM
[29] = molecular target: KIT V559D (Homo sapiens, UniProt P10721, V559D); assay: SelectScreen kinase profiling, ZLYTE; type: biochemical
[30] = molecular target: MARK4 (Homo sapiens, UniProt Q96L34); assay: SelectScreen kinase profiling, ZLYTE; type: biochemical; conditions: MARK4, 10 µM
[31] = molecular target: RIPK2 (Homo sapiens, UniProt O43353); assay: SelectScreen kinase profiling, LanthaScreen binding; conditions: RIPK2, 10 µM
[32] = molecular target: T1, JAK2 JH1 JH2 (Homo sapiens, UniProt O60674); assay: SelectScreen kinase profiling, ZLYTE; type: biochemical; conditions: JAK2 JH1 JH2, 10 µM
T1 construct: JAK2 JH1 JH2

[33] = molecular target: CDK9/cyclin K (Homo sapiens, UniProt P50750); assay: SelectScreen kinase profiling, LanthaScreen binding
[34] = molecular target: ABL1 T315I (Homo sapiens, UniProt P00519, T315I); assay: SelectScreen kinase profiling, ZLYTE; type: biochemical
[35] = molecular target: STK22B (TSSK2) (Homo sapiens, UniProt Q96PF2); assay: SelectScreen kinase profiling, ZLYTE; type: biochemical
[36] = molecular target: MET M1250T (Homo sapiens, UniProt P08581, M1250T); assay: SelectScreen kinase profiling, ZLYTE; type: biochemical
[37] = molecular target: MET (cMet) Y1235D (Homo sapiens, UniProt P08581, Y1235D); assay: SelectScreen kinase profiling, ZLYTE; type: biochemical
[38] = molecular target: KIT V559D V654A (Homo sapiens, UniProt P10721, V559D/V654A); assay: SelectScreen kinase profiling, ZLYTE; type: biochemical

CDK9/cyclin K, sequence (P50750 whole entry): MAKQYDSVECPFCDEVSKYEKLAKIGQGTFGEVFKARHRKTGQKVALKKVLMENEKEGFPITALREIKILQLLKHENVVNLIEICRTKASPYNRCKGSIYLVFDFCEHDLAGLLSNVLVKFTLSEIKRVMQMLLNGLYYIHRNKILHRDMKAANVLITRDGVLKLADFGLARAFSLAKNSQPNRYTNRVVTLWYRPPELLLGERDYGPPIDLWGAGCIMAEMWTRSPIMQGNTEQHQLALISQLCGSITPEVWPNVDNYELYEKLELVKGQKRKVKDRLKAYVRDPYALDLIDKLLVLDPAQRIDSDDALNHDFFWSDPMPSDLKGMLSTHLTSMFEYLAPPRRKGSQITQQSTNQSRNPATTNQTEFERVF
CDK9/cyclin K, sequence (O75909 whole entry partner): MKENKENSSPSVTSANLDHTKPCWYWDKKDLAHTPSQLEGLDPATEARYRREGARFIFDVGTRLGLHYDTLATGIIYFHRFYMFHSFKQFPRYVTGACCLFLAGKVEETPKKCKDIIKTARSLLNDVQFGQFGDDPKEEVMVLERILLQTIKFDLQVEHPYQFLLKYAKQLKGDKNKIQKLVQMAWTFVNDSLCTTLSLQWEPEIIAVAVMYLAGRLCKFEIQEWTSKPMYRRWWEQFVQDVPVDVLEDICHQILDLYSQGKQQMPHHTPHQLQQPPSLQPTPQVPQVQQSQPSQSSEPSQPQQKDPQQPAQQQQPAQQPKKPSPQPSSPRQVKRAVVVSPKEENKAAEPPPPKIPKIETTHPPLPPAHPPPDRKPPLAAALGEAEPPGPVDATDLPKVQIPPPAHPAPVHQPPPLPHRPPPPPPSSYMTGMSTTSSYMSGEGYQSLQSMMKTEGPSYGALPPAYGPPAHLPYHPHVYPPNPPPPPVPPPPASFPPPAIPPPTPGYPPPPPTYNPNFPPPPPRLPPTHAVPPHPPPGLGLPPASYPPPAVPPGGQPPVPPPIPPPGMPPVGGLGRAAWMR
RIPK2, sequence (O43353 whole entry): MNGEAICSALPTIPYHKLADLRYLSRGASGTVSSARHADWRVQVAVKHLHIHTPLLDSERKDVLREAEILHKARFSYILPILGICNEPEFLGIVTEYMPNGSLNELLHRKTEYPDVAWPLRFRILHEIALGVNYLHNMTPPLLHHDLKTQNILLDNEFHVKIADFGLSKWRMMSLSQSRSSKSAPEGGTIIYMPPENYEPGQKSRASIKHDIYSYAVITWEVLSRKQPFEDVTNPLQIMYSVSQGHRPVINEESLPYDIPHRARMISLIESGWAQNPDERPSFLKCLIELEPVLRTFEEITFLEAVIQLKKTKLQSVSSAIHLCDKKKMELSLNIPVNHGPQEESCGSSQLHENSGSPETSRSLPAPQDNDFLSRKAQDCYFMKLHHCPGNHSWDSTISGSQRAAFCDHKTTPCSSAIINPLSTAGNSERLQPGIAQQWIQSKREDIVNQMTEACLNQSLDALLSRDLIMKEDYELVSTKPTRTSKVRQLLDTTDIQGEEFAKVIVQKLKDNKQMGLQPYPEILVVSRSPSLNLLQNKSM
MET (cMet) Y1235D, sequence (P08581 25-1390 Y1235D): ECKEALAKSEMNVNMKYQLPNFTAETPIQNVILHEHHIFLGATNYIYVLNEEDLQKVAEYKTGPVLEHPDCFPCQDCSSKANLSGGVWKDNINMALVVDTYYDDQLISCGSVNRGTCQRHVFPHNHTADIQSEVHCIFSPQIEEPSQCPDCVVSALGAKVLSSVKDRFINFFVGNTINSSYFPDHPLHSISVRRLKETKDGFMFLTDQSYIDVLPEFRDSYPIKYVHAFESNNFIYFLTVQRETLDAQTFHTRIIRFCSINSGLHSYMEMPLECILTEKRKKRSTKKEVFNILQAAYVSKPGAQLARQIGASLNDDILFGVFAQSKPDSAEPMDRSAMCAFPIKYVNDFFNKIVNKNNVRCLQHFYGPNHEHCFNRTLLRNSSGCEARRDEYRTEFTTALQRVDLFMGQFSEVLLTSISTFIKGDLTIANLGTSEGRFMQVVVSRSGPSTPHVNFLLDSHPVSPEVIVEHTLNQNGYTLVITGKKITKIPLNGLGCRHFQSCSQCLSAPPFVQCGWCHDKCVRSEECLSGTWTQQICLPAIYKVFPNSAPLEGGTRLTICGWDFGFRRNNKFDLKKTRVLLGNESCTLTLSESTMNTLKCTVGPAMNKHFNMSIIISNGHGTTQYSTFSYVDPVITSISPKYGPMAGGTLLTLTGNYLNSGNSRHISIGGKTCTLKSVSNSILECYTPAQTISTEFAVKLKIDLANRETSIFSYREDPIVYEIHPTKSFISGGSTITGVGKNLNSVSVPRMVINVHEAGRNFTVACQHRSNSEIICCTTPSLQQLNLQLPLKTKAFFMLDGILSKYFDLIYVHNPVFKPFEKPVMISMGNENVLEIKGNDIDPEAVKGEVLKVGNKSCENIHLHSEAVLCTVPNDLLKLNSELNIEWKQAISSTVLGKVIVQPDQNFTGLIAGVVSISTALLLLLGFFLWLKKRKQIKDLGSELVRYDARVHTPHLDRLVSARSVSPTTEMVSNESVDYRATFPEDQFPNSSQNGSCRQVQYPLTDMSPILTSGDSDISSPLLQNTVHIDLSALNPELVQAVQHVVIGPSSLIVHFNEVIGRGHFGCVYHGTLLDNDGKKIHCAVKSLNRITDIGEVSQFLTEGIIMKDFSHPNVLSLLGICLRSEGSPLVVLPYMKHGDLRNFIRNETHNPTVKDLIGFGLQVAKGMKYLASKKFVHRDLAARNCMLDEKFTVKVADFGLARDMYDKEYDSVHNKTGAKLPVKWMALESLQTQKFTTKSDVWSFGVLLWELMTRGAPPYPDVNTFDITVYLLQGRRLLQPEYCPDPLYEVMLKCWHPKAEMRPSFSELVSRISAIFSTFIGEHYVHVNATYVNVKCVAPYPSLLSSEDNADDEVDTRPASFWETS
EPHA2, sequence (P29317 24-976): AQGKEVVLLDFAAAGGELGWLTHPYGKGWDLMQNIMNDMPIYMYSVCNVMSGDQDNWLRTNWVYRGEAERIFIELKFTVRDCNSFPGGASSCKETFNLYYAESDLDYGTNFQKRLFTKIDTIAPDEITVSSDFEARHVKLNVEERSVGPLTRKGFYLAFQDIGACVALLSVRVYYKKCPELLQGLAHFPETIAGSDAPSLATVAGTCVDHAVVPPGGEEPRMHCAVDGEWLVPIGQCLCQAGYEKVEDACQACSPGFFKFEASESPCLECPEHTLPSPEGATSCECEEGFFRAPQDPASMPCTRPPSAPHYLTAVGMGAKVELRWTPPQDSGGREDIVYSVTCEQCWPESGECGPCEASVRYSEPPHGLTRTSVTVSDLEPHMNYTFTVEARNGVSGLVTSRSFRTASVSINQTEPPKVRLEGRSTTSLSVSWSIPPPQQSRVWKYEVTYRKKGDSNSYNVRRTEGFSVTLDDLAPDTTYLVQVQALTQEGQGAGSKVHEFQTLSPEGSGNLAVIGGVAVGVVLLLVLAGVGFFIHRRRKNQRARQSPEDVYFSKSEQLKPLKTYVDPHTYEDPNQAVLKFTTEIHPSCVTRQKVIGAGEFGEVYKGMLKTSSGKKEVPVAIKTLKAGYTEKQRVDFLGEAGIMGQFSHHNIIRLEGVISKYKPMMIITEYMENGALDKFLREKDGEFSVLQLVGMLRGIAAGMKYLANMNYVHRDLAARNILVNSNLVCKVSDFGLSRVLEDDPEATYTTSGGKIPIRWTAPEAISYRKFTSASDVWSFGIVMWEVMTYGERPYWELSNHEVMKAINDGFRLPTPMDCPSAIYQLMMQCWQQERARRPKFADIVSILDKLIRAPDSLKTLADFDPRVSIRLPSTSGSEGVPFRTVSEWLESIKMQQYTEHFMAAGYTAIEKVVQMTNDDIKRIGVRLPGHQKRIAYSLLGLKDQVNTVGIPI
PLK1, sequence (P53350 whole entry): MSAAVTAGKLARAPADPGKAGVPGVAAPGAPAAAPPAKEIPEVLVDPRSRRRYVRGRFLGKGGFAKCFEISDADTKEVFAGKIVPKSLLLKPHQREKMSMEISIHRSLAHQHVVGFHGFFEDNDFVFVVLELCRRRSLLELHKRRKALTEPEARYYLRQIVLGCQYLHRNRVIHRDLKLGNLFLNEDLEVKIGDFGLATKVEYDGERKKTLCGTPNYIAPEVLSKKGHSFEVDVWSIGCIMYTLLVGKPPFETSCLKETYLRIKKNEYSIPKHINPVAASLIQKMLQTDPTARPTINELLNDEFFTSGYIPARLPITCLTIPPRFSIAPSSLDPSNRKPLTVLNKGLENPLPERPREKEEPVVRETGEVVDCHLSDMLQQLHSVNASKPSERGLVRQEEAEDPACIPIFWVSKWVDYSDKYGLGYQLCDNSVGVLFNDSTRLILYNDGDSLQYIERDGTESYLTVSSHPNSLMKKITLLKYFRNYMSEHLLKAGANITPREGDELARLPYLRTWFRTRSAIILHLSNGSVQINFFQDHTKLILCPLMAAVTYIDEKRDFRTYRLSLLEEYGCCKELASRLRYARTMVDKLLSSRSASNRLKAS
STK22B (TSSK2), sequence (Q96PF2 whole entry): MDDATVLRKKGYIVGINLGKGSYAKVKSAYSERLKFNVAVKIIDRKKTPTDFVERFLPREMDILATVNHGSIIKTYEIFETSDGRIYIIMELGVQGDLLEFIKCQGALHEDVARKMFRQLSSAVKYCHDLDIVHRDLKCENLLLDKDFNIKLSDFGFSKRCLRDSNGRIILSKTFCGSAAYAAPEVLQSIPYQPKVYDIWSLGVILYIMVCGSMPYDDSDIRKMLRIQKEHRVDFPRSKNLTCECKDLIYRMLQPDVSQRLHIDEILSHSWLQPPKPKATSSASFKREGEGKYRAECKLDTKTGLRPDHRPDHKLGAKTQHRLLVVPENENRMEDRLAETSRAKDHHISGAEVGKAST

For O=C(c1ccc(/C=C/c2n[nH]c3ccccc23)cc1)N1CCNCC1 [KW-2449], the inhibition at 10 µM [1] was 87%, the inhibition at 10 µM [2] was 74% and the inhibition at 10 µM [3] was 2%. For the same compound, the inhibition at 10 µM [4] was 100%, the inhibition at 10 µM [5] was 95% and the inhibition at 10 µM [6] was 83%. The inhibition at 10 µM [7] was 10%, the inhibition at 10 µM [8] was 16% and the inhibition at 10 µM [9] was 83%. The inhibition at 10 µM [10] was 37%, the inhibition at 10 µM [11] was -1% and the inhibition at 10 µM [12] was 83%. For the same compound, the inhibition at 10 µM [13] was 76%, the inhibition at 10 µM [14] was 6% and the inhibition at 10 µM [15] was 98%. The inhibition at 10 µM [16] was 98%, the inhibition at 10 µM [17] was 37% and the inhibition at 10 µM [18] was 70%. It also gave an inhibition at 10 µM [19] of 79%, an inhibition at 10 µM [20] of 81% and an inhibition at 10 µM [21] of 79%. The inhibition at 10 µM [22] was 45%, the inhibition at 10 µM [23] was 2% and the inhibition at 10 µM [24] was 99%. For the same compound, the inhibition at 10 µM [25] was 98%, the inhibition at 10 µM [26] was 75% and the inhibition at 10 µM [27] was 96%. The inhibition at 10 µM [28] was 99%, the inhibition at 10 µM [29] was 91% and the inhibition at 10 µM [30] was 101%. It also gave an inhibition at 10 µM [31] of 77%, an inhibition at 10 µM [32] of 96% and an inhibition at 10 µM [33] of 38%. The inhibition at 10 µM [34] was 101%, the inhibition at 10 µM [35] was 74% and the inhibition at 10 µM [36] was 96%. The inhibition at 10 µM [37] was 88% and the inhibition at 10 µM [38] was 77%.
